Experimental data: US11458123B2 (Arvinas, Inc., priority 2016, dated 2022)

Test system: tau protein
Test: Tau protein in vitro degradation assay (Western blot, Tau-13 antibody)
Type: cell-based, human
Settings: SK-N-SH cells; 72 hours of incubation; tested at 300 nM, 100 nM, 33 nM and 11 nM; Western blot, Tau-13 antibody
Procedure, shortened: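 SK-N-SH cells, seeded ≥18 h beforehand, were incubated 72 h with tau PROTACs at 1000, 300 and 100 nM or at 300, 100, 33 and 11 nM. Lysates in protease-inhibitor buffer were resolved by SDS-PAGE; tau quantified by Western blot with Tau-13 antibody recognising all human tau forms.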

Question: Which “Degradation activity* (highest amount of degradation observed at any dosage; tau protein remaining)” value does the source give for `O=C1CCC(N2C(=O)c3ccc(N4CCN(CCCO[C@H]5C[C@H](Oc6ccc(-c7ccc8c(c7)[nH]c7ccncc78)cn6)C5)CC4)cc3C2=O)C(=O)N1` (some centres unmarked) [Compound 60, 5-(4-(3-((1r,3r)-3-((5-(5H-pyrido[4,3-b]indol-7-yl)pyridin-2-yl)oxy)cyclobutoxy)propyl)piperazin-1-yl)-2-(2,6-dioxopiperidin-3-yl)isoindoline-1,3-dione] here?
Answer: Its value is “C (>80% tau protein remaining after 72 hours of incubation with the test compound)”.

Question: Which “Degradation activity* (highest amount of degradation observed at any dosage; tau protein remaining)” value does the source give for `Cn1c2ccncc2c2ccc(-c3ccc(O[C@H]4C[C@H](OCCCCCCCCN5CCN(c6ccc7c(c6)C(=O)N(C6CCC(=O)NC6=O)C7=O)CC5)C4)nc3)cc21` (some centres unmarked) [Compound 91, 2-(2,6-dioxopiperidin-3-yl)-5-(4-(8-((1r,3r)-3-((5-(5-methyl-5H-pyrido[4,3-b]indol-7-yl)pyridin-2-yl)oxy)cyclobutoxy)octyl)piperazin-1-yl)isoindoline-1,3-dione] here?
Answer: Its value is “C (>80% tau protein remaining after 72 hours of incubation with the test compound)”.

Question: Which “Degradation activity* (highest amount of degradation observed at any dosage; tau protein remaining)” value does the source give for `Cn1c2ccncc2c2ccc(-c3ccc(O[C@H]4C[C@H](OCCCCCN5CCN(c6ccc7c(c6)C(=O)N(C6CCC(=O)NC6=O)C7=O)CC5)C4)nc3)cc21` (some centres unmarked) [Compound 68, 2-(2,6-dioxopiperidin-3-yl)-5-(4-(5-((1r,3r)-3-((5-(5-methyl-5H-pyrido[4,3-b]indol-7-yl)pyridin-2-yl)oxy)cyclobutoxy)pentyl)piperazin-1-yl)isoindoline-1,3-dione] here?
Answer: Its value is “C (>80% tau protein remaining after 72 hours of incubation with the test compound)”.

Question: Which “Degradation activity (tau protein remaining; highest amount of degradation observed at any dosage)” value does the source give for `O=C1CCC(N2C(=O)c3ccc(OCCCCC#Cc4ccc(O[C@H]5C[C@H](Oc6ccc(-c7ccc8c(c7)[nH]c7ccncc78)cn6)C5)cn4)cc3C2=O)C(=O)N1` (some centres unmarked) [Compound 172, 5-((6-(5-((1r,3r)-3-((5-(5H-pyrido[4,3-b]indol-7-yl)pyridin-2-yl)oxy)cyclobutoxy)pyridin-2-yl)hex-5-yn-1-yl)oxy)-2-(2,6-dioxopiperidin-3-yl)isoindoline-1,3-dione] here?
Answer: The value was “C (>80% tau protein remaining after 72 hours of incubation with the test compound)”.

Question: For `Cn1c2ccncc2c2ccc(-c3ccc(OCCCCCOCCOC(CC4CCN(c5ccc6c(c5)C(=O)N(C5CCC(=O)NC5=O)C6=O)CC4)C(F)(F)F)nc3)cc21` (centres unmarked) [Compound 89, 2-(2,6-dioxopiperidin-3-yl)-5-(4-(3,3,3-trifluoro-2-(2-((5-((5-(5-methyl-5H-pyrido[4,3-b]indol-7-yl)pyridin-2-yl)oxy)pentyl)oxy)ethoxy)propyl)piperidin-1-yl)isoindoline-1,3-dione], which “Degradation activity* (highest amount of degradation observed at any dosage; tau protein remaining)” value is on record?
Answer: Its value is “C (>80% tau protein remaining after 72 hours of incubation with the test compound)”.

Question: How did the “Degradation activity (tau protein remaining; highest amount of degradation observed at any dosage)” value turn out when `Cn1c2ccncc2c2ccc(-c3ccc(O[C@H]4C[C@H](OCCOCCCOCC5CN(c6ccc7c(c6)C(=O)N(C6CCC(=O)NC6=O)C7=O)C5)C4)nc3)cc21` (some centres unmarked) [Compound 191, 2-(2,6-dioxopiperidin-3-yl)-5-(3-((3-(2-((1r,3r)-3-((5-(5-methyl-5H-pyrido[4,3-b]indol-7-yl)pyridin-2-yl)oxy)cyclobutoxy)ethoxy)propoxy)methyl)azetidin-1-yl)isoindoline-1,3-dione] was run?
Answer: The value was “A (≤50% tau protein remaining after 72 hours of incubation with the test compound)”.

Question: Which “Degradation activity* (highest amount of degradation observed at any dosage; tau protein remaining)” value does the source give for `Cn1c2ccncc2c2ccc(-c3cnc(OCCOCCOCCOCCOCCOc4ccc5c(c4)C(=O)N(C4CCC(=O)NC4=O)C5=O)c(C(F)(F)F)c3)cc21` (centres unmarked) [Compound 67, 2-(2,6-dioxopiperidin-3-yl)-5-((14-((5-(5-methyl-5H-pyrido[4,3-b]indol-7-yl)-3-(trifluoromethyl)pyridin-2-yl)oxy)-3,6,9,12-tetraoxatetradecyl)oxy)isoindoline-1,3-dione] here?
Answer: The value was “A (≤50% tau protein remaining after 72 hours of incubation with the test compound)”.

Question: Which “Degradation activity* (highest amount of degradation observed at any dosage; tau protein remaining)” value does the source give for `O=C1CCC(N2C(=O)c3ccc(OCCCCCN4CCN(CCO[C@H]5C[C@H](Oc6ccc(-c7ccc8c(c7)[nH]c7ccncc78)cn6)C5)CC4)cc3C2=O)C(=O)N1` (some centres unmarked) [Compound 59, 5-((5-(4-(2-((1r,3r)-3-((5-(5H-pyrido[4,3-b]indol-7-yl)pyridin-2-yl)oxy)cyclobutoxy)ethyl)piperazin-1-yl)pentyl)oxy)-2-(2,6-dioxopiperidin-3-yl)isoindoline-1,3-dione] here?
Answer: Its value is “C (>80% tau protein remaining after 72 hours of incubation with the test compound)”.

Question: For `Cc1ncsc1-c1ccc([C@H](C)NC(=O)[C@@H]2C[C@@H](O)CN2C(=O)[C@@H](NC(=O)COCCOc2ccc(-c3ccc4c(c3)[nH]c3ccncc34)cn2)C(C)(C)C)cc1` [Compound 120, (2S,4R)-1-((S)-2-(2-(2-((5-(5H-pyrido[4,3-b]indol-7-yl)pyridin-2-yl)oxy)ethoxy)acetamido)-3,3-dimethylbutanoyl)-4-hydroxy-N—((S)-1-(4-(4-methylthiazol-5-yl)phenyl)ethyl)pyrrolidine-2-carboxamide], which “Degradation activity* (highest amount of degradation observed at any dosage; tau protein remaining)” value is on record?
Answer: The value was “C (>80% tau protein remaining after 72 hours of incubation with the test compound)”.

Question: For `Cn1c2ccncc2c2c(F)c(F)c(-c3ccc(O[C@H]4C[C@H](OCCCOCCCOC5CN(c6ccc7c(c6)C(=O)N(C6CCC(=O)NC6=O)C7=O)C5)C4)nc3)cc21` (some centres unmarked) [Compound 176, 5-(3-(3-(3-((1r,3r)-3-((5-(8,9-difluoro-5-methyl-5H-pyrido[4,3-b]indol-7-yl)pyridin-2-yl)oxy)cyclobutoxy)propoxy)propoxy)azetidin-1-yl)-2-(2,6-dioxopiperidin-3-yl)isoindoline-1,3-dione], which “Degradation activity (tau protein remaining; highest amount of degradation observed at any dosage)” value is on record?
Answer: The value was “C (>80% tau protein remaining after 72 hours of incubation with the test compound)”.

Question: With `Cn1c2ccncc2c2ccc(-c3ccc(O[C@H]4C[C@H](Oc5ccc(CCCCCCOc6ccc7c(c6)C(=O)N(C6CCC(=O)NC6=O)C7=O)nc5)C4)nc3)cc21` (some centres unmarked) [Compound 98, 2-(2,6-dioxopiperidin-3-yl)-5-((6-(5-((1r,3r)-3-((5-(5-methyl-5H-pyrido[4,3-b]indol-7-yl)pyridin-2-yl)oxy)cyclobutoxy)pyridin-2-yl)hexyl)oxy)isoindoline-1,3-dione] as the molecule, how does the “Degradation activity* (highest amount of degradation observed at any dosage; tau protein remaining)” value read?
Answer: The value was “B (≤80% and >50% tau protein remaining after 72 hours of incubation with the test compound)”.

Question: `O=C1CCC(N2C(=O)c3ccc(OCC#Cc4ccc(O[C@H]5C[C@H](Oc6ccc(-c7cc8[nH]c9ccncc9c8c(F)c7F)cn6)C5)cn4)cc3C2=O)C(=O)N1` (some centres unmarked) [Compound 204, 5-((3-(5-((1r,3r)-3-((5-(8,9-difluoro-5H-pyrido[4,3-b]indol-7-yl)pyridin-2-yl)oxy)cyclobutoxy)pyridin-2-yl)prop-2-yn-1-yl)oxy)-2-(2,6-dioxopiperidin-3-yl)isoindoline-1,3-dione] was tested. Which “Degradation activity (tau protein remaining; highest amount of degradation observed at any dosage)” value did it give?
Answer: The value was “C (>80% tau protein remaining after 72 hours of incubation with the test compound)”.

Question: For `Cn1c2ccncc2c2ccc(-c3ccc(N4CCC(CCN5CCN(c6ccc7c(c6)CN(C6CCC(=O)NC6=O)C7=O)CC5)CC4)nc3)cc21` (centres unmarked) [Compound 128, 3-(5-(4-(2-(1-(5-(5-methyl-5H-pyrido[4,3-b]indol-7-yl)pyridin-2-yl)piperidin-4-yl)ethyl)piperazin-1-yl)-1-oxoisoindolin-2-yl)piperidine-2,6-dione], which “Degradation activity* (highest amount of degradation observed at any dosage; tau protein remaining)” value is on record?
Answer: The value was “C (>80% tau protein remaining after 72 hours of incubation with the test compound)”.

Question: `Cn1c2ccncc2c2ccc(-c3ccc(O[C@H]4C[C@H](OCCOCCOCCC5CN(c6ccc7c(c6)C(=O)N(C6CCC(=O)NC6=O)C7=O)C5)C4)nc3)cc21` (some centres unmarked) [Compound 190, 2-(2,6-dioxopiperidin-3-yl)-5-(3-(2-(2-(2-((1r,3r)-3-((5-(5-methyl-5H-pyrido[4,3-b]indol-7-yl)pyridin-2-yl)oxy)cyclobutoxy)ethoxy)ethoxy)ethyl)azetidin-1-yl)isoindoline-1,3-dione] was tested. Which “Degradation activity (tau protein remaining; highest amount of degradation observed at any dosage)” value did it give?
Answer: The value was “C (>80% tau protein remaining after 72 hours of incubation with the test compound)”.

Question: How did the “Degradation activity* (highest amount of degradation observed at any dosage; tau protein remaining)” value turn out when `Cn1c2ccncc2c2ccc(-c3ccc(O[C@H]4C[C@H](OCCCCCCOC(C5CN(c6ccc7c(c6)C(=O)N(C6CCC(=O)NC6=O)C7=O)C5)C(F)(F)F)C4)nc3)cc21` (some centres unmarked) [Compound 154, 2-(2,6-dioxopiperidin-3-yl)-5-(3-(2,2,2-trifluoro-1-((6-((1r,3r)-3-((5-(5-methyl-5H-pyrido[4,3-b]indol-7-yl)pyridin-2-yl)oxy)cyclobutoxy)hexyl)oxy)ethyl)azetidin-1-yl)isoindoline-1,3-dione] was run?
Answer: Its value is “C (>80% tau protein remaining after 72 hours of incubation with the test compound)”.

Same assay, conditions: SK-N-SH cells; 72 hours of incubation; tested at 1000 nM, 300 nM and 100 nM

Question: With `O=C1CCC(N2C(=O)c3cccc(NCCOCCOCCOCCOc4ccc(-c5ccc6c(c5)[nH]c5ccncc56)cn4)c3C2=O)C(=O)N1` (centres unmarked) [Compound 2, 4-(2-(2-(2-(2-(5-(5H-pyrido[4,3-b]indol-7-yl)pyridin-2-yloxy)ethoxy)ethoxy)ethoxy)ethylamino)-2-(2,6-dioxopiperidin-3-yl)isoindoline-1,3-dione] as the molecule, how does the “Activity* (highest amount of degradation observed at any dosage, as tau protein remaining)” value read?
Answer: The value was “A (≤50% tau protein remaining after 72 hours of incubation with the test compound)”.

Question: How did the “Activity* (highest amount of degradation observed at any dosage, as tau protein remaining)” value turn out when `Cc1ncsc1-c1ccc([C@H](C)NC(=O)[C@@H]2C[C@@H](O)CN2C(=O)[C@@H](NC(=O)COCCOCCOCCOCCN2CCN(c3ccn4c(n3)nc3ccccc34)CC2)C(C)(C)C)cc1` [Compound 16, (2S,4R)-1-((S)-17-(4-(benzo[4,5]imidazo[1,2-a]pyrimidin-2-yl)piperazin-1-yl)-2-(tert-butyl)-4-oxo-6,9,12,15-tetraoxa-3-azaheptadecanoyl)-4-hydroxy-N—((S)-1-(4-(4-methylthiazol-5-yl)phenyl)ethyl)pyrrolidine-2-carboxamide] was run?
Answer: The value was “C (>80% tau protein remaining after 72 hours of incubation with the test compound)”.
